From patent US20110144140A1, “PYRIDINYL-PYRIMIDINE DERIVATIVES USEFUL AS POTASSIUM CHANNEL MODULATING AGENTS” (priority 2006, published 2011)
Counter-ions that a name gives are not always drawn.

Legend:
hSK3 channels = target: T1, hSK3 channels (Homo sapiens, UniProt Q9UGI6); experiment: whole-cell patch-clamp recording of ionic current through SK channels, subtype 3, in HEK293 cells; assay type: cell-based; conditions: HEK293 cells expressing hSK3, baseline current at −75 mV, free Ca2+ 0.3-0.4 μM
T1 construct: expressed in transfected cells; host or cells: HEK293
Procedure: The ionic current through small-conductance Ca^2+-activated K^+ channels (SK channels, subtype 3) is recorded using the whole-cell configuration of the patch-clamp technique.
HEK293 tissue culture cells expressing hSK3 channels were grown in DMEM (Dulbecco's Modified Eagle Medium) supplemented with 10% FCS (foetal calf serum) at 37° C. in 5% CO2. At 60-80% confluency, cells were harvested by trypsin treatment and seeded on cover slips.
Experiments are carried out on one of several patch-clamp set-ups. Cells plated on coverslips are placed in a 15 μl perfusion chamber (flowrate ˜1 ml/min) mounted on an IMT-2 microscope. The microscopes are placed on vibration-free tables in grounded Faraday cages. All experiments are performed at room temperature (20-22° C.). […] Data are stored directly on the hard-disk and analysed by IGOR software (Wavemetrics, Lake Oswega, Oreg., USA).
The whole-cell configuration of the patch-clamp technique is applied. […] Cell capacitance is electronically compensated and the resistance between the pipette and the cell interior (the series resistance, Rs) is measured and compensated for. […]
The intracellular (pipette) solution contained: 154 mM KCl, 10 mM HEPES, 10 mM EGTA. Concentrations of CaCl2 and MgCl2 needed to obtain the desired free concentrations of Ca^2+ (0.3-0.4 μM, Mg^2+ always 1 mM) were calculated by EqCal software (Cambridge, UK) and added. […]

T1 sequence (Q9UGI6 whole entry): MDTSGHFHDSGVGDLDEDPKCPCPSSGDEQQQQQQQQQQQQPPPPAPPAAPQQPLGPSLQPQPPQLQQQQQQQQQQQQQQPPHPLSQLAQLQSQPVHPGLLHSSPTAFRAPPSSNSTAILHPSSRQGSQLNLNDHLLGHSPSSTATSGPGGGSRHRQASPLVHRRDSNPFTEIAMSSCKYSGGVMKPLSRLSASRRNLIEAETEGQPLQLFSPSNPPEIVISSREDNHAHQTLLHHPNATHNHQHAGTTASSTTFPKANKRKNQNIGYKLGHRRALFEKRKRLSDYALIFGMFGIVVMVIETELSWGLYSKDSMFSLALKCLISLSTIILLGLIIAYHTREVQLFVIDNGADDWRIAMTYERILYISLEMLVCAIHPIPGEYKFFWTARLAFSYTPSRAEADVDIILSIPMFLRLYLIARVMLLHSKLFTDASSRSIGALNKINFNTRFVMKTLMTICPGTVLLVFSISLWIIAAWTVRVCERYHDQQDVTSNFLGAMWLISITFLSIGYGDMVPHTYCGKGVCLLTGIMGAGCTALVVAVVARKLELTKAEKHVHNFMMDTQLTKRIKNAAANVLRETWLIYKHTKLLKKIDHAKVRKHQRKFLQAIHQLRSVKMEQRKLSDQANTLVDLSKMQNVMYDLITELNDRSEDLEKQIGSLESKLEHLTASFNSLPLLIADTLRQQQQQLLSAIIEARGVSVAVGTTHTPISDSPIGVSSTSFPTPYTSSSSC

Cc1cc(Nc2ccc(Cl)cc2)nc(-c2cccc(Cl)n2)n1 (as salt: hydrochloride) [Compound 4A, (4-Chloro-phenyl)-[6-methyl-2-(6-chloro-pyridin-2-yl)-pyrimidin-4-yl]-amine]
melting point: 239 °C

Cc1cc(Nc2ccc(Cl)cc2)nc(-c2cccc(Cl)n2)n1 [Compound 4A, (4-Chloro-phenyl)-[6-methyl-2-(6-chloro-pyridin-2-yl)-pyrimidin-4-yl]-amine]
SC100 (Stimulating Concentration required for increasing the baseline current by 100%) (hSK3 channels): 0.3 µM

Cc1cccc(-c2nc(C)cc(NC3CCCCC3)n2)n1
melting point: 59.6 to 65 °C
